This is an account of results in PMC6779874, “ACT001, a novel PAI-1 inhibitor, exerts synergistic effects in combination with cisplatin by inhibiting PI3K/AKT pathway in glioma” (Cell Death & Disease, 2019).

Experiment [1] deals with T1, PAI-1 (plasminogen activator inhibitor-1) (Homo sapiens, UniProt P05121).
T1 construct: gene SERPINE1; Recombinant human PAI-1
As to the kind of experiment: SPR (Biacore […], immobilized PAI-1); also CETSA in cell extract; prodrug that releases MCL. The format is binding.

For experiment [2], the target named is T1, PAI-1 (plasminogen activator inhibitor-1). As to the kind of experiment: SPR (Biacore […], immobilized PAI-1); also CETSA/ITDR in cell extract. In kind it is binding. A general note: In SPR one partner is held on a chip, and binding of the other changes the refractive index at the surface.

T1 sequence (P05121 24-402): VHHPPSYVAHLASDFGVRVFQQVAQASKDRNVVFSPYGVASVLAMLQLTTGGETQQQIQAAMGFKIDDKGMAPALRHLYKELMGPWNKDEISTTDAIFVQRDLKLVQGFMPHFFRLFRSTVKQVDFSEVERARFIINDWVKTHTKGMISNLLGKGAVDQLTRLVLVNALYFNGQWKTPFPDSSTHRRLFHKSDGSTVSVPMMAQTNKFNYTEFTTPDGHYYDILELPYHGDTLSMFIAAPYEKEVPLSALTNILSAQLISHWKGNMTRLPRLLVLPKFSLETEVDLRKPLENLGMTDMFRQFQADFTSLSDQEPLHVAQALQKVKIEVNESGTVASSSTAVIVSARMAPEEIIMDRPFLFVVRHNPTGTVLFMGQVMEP

On to `CC1=C2CC[C@@](C)(O)[C@@H]2[C@H]2OC(=O)[C@@H](CN(C)C)[C@@H]2CC1` [ACT001], for which the dissociation constant (Kd) – broadly, the equilibrium constant for the complex coming apart – in experiment [1] worked out at 2.31 mM.

Regarding `C=C1C(=O)O[C@H]2[C@H]1CCC(C)=C1CC[C@@](C)(O)[C@@H]12` [MCL], in experiment [2], the Kd turned out to be 0.0108 mM.
